Laboratory results taken from ChEMBL document CHEMBL1201862, “PubChem BioAssay data set” (2004).
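Interpolation was linear, between the two tested concentrations surrounding the appropriate level; five concentrations were tested over 48 hours in 96-well plates. GI50: concentration for 50% inhibition of growth.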 Active and inactive are the calls of the source. No stated cut-off is given here; in the data, active = GI50 up to about 1.1 µM and inactive = higher.

Columns and labels:
Assay in all cases: NCI-60 cell line screen, 48 h
NCI-H460 = system: NCI-H460
UACC-62 = system: UACC-62
MDA-N = system: MDA-N
MCF7 = system: MCF7
ACHN = system: ACHN
Malme-3M = system: Malme-3M
M14 = system: M14
A549 = system: A549
MDA-MB-231 = system: MDA-MB-231
RXF 393 = system: RXF 393
SK-MEL-5 = system: SK-MEL-5
RPMI-8226 = system: RPMI-8226
DU-145 = system: DU-145
HCC 2998 = system: HCC 2998
786-0 = system: 786-0
SN12C = system: SN12C
IGROV-1 = system: IGROV-1
KM12 = system: KM12
U-251 = system: U-251
COLO 205 = system: COLO 205

Measured: GI50

COc1ccc(-c2c(C#N)c(O)n(C3OC(CO)C(O)C(O)C3O)c(=S)c2C#N)cc1 (centres undefined)
inactive: NCI-H460 > 100 µM | UACC-62 > 100 µM | MDA-N > 100 µM | MCF7 > 100 µM | ACHN > 100 µM | Malme-3M > 100 µM | M14 > 100 µM | A549 > 100 µM | MDA-MB-231 > 100 µM | RXF 393 > 100 µM | SK-MEL-5 > 100 µM | RPMI-8226 > 100 µM | DU-145 > 100 µM | HCC 2998 > 100 µM | 786-0 > 100 µM | SN12C > 100 µM | IGROV-1 > 100 µM | KM12 > 100 µM

O=[N+]([O-])c1cccnc1NCC1(CO)CC(Cc2ccccc2)C1 (centres undefined)
inactive: NCI-H460 > 100 µM | UACC-62 > 100 µM | MDA-N > 100 µM | MCF7 > 100 µM | ACHN > 100 µM | U-251 > 100 µM | Malme-3M > 100 µM | A549 > 100 µM | MDA-MB-231 > 100 µM | RXF 393 > 100 µM | SK-MEL-5 > 100 µM | RPMI-8226 99.8 µM | DU-145 > 100 µM | COLO 205 > 100 µM | HCC 2998 > 100 µM | 786-0 > 100 µM | SN12C > 100 µM | IGROV-1 > 100 µM | KM12 > 100 µM

CC1=NC(=O)C(C)(c2ccccc2)N1CCc1ccccc1 (centres undefined)
inactive: UACC-62 44 µM | MDA-N 36.3 µM | MCF7 55.1 µM | ACHN > 100 µM | U-251 > 100 µM | Malme-3M > 100 µM | M14 > 100 µM | A549 27.3 µM | MDA-MB-231 67.6 µM | RXF 393 24.7 µM | SK-MEL-5 27 µM | RPMI-8226 63.1 µM | DU-145 > 100 µM | COLO 205 27.4 µM | HCC 2998 27.4 µM | 786-0 > 100 µM | SN12C > 100 µM | IGROV-1 57.8 µM | KM12 44.3 µM

C=C1[C@@H](OC(C)=O)[C@H]2[C@@H](OC(C)=O)[C@@](C)(OC(C)=O)C[C@]2(OC(C)=O)C(=O)[C@@H](C)/C=C/C(C)(C)C(=O)C[C@H]1OC(C)=O
inactive: UACC-62 83.8 µM | MDA-N > 100 µM | MCF7 > 100 µM | ACHN > 100 µM | U-251 > 100 µM | Malme-3M > 100 µM | M14 > 100 µM | A549 > 100 µM | MDA-MB-231 > 100 µM | RXF 393 > 100 µM | SK-MEL-5 > 100 µM | RPMI-8226 > 100 µM | DU-145 > 100 µM | COLO 205 72.3 µM | HCC 2998 > 100 µM | 786-0 > 100 µM | SN12C > 100 µM | IGROV-1 > 100 µM | KM12 > 100 µM

CCCCCCCCCCCC[C@@H](O)[C@H]1CC[C@H]([C@H](O)CC[C@H](O)[C@@H]2CC[C@@H](CCCCCCCC3=C[C@H](C)OC3=O)O2)O1
inactive: NCI-H460 2.54 µM | UACC-62 1.53 µM | MDA-N 6.47 µM | MCF7 > 50 µM | ACHN > 50 µM | U-251 > 50 µM | Malme-3M > 50 µM | M14 > 50 µM | A549 > 50 µM | MDA-MB-231 > 50 µM | RXF 393 > 50 µM | RPMI-8226 > 37.2 µM | DU-145 7.55 µM | COLO 205 > 50 µM | HCC 2998 > 50 µM | 786-0 > 50 µM | SN12C 3.99 µM | IGROV-1 > 50 µM | KM12 > 50 µM
